A value given as a limit tells only on which side of the number the result lay.

The target of one assay is T1, JNK1 (Homo sapiens, UniProt P45983).
T1 construct: purchased Carna Biosciences
T1 sequence (P45983 whole entry): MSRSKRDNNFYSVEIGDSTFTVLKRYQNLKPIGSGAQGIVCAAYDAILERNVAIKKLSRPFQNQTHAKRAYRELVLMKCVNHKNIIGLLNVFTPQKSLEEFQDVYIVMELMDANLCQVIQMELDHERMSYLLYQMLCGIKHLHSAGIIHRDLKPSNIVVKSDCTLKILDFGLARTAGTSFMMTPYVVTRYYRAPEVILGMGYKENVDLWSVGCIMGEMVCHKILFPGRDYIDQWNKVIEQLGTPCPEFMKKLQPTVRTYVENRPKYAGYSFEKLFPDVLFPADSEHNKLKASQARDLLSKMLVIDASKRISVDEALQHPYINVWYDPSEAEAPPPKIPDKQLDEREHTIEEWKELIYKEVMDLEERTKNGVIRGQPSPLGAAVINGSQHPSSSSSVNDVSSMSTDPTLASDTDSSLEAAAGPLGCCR
Nature of the assay: JNK1 biochemical assays (one or more of: time resolved fluorescence, Z'-LYTE Cascade, radioactive). The settings on record: Table 2; JNK1 IC50 activity level; read-out: Act. Level.
For `COc1ccc(C)c(Nc2ncc(C(N)=O)c(Nc3ccccc3)n2)c1` [Example B-34, 2-(5-methoxy-2-methylphenylamino)-4-(phenylamino)pyrimidine-5-carboxamide], the IC50 was < 200 nM.

Consider `NC(=O)c1cnc(NCc2cc(F)cc(F)c2)nc1Nc1ccccc1` [Example B-52, 2-(3,5-difluorobenzylamino)-4-(phenylamino)pyrimidine-5-carboxamide], for which the IC50 is 800 to 1000 nM. Turning to `Cc1ccnc(Nc2ncc(C(N)=O)c(Nc3ccccc3)n2)n1` [Example B-21, 2-(4-methylpyrimidin-2-ylamino)-4-(phenylamino)pyrimidine-5-carboxamide], the IC50 fell in the range of 1000 to 10000 nM. With `CCOc1ccc(Nc2ncc(C(N)=O)c(N[C@H]3CCC[C@@H]3O)n2)cc1` [Example B-1, 2-(4-ethoxyphenylamino)-4-((1S,2S)-2-hydroxycyclopentylamino)pyrimidine-5-carboxamide], the IC50 is < 200 nM. On to `CCN(CC)c1ccc(Nc2ncc(C(N)=O)c(Nc3ccccc3)n2)cc1` [Example B-13, 2-(4-(diethylamino)phenylamino)-4-(phenylamino)pyrimidine-5-carboxamide], for which the IC50 was < 200 nM. Turning to `NC(=O)c1cnc(Nc2ccc(N3CCOCC3)cc2)nc1Nc1ccccc1` [Example B-40, 2-(4-morpholinophenylamino)-4-(phenylamino)pyrimidine-5-carboxamide], the IC50 was < 200 nM. For the molecule `COc1ccc(CNc2ncc(C(N)=O)c(Nc3ccccc3)n2)cc1OC` [Example B-43, 2-(3,4-dimethoxybenzylamino)-4-(phenylamino)pyrimidine-5-carboxamide], the IC50 lay within 200 to 800 nM. The same measure, in the same setting: the result for `C[C@@H](Nc1ncc(C(N)=O)c(N[C@@H]2CCC[C@H](O)C2)n1)c1ccc(F)cc1` [Example B-89, 2-((R)-1-(4-fluorophenyl)ethylamino)-4-((1R,3S)-3-hydroxycyclohexylamino)pyrimidine-5-carboxamide] reads < 200 nM. As for `NC(=O)c1cnc(Nc2ccccc2Oc2ccccc2)nc1Nc1ccccc1` [Example B-22, 2-(2-phenoxyphenylamino)-4-(phenylamino)pyrimidine-5-carboxamide], the IC50 was < 200 nM. Consider `NC(=O)c1cnc(NC2CCOCC2)nc1Nc1ccc2cn[nH]c2c1` [Example B-3, 4-(1H-indazol-6-ylamino)-2-(tetrahydro-2H-pyran-4-ylamino)pyrimidine-5-carboxamide], for which the IC50 was < 200 nM.

Turning to `NC(=O)c1cnc(N[C@H]2CCc3cccnc3C2)nc1N[C@@H]1CCC[C@H](O)C1` [Example B-87, 4-((1R,3S)-3-hydroxycyclohexylamino)-2-((S)-5,6,7,8-tetrahydroquinolin-7-ylamino)pyrimidine-5-carboxamide], the IC50 was < 200 nM.

The assay is the same for the next values; noted with them: Table 3; JNK1 IC50 activity level; read-out: Act. Level.
For the molecule `CO[C@H]1CC[C@H](Nc2ncc(C#N)c(N[C@@H]3CCC[C@](C)(O)C3)n2)CC1` [Example C-19, 4-((1R,3S)-3-hydroxy-3-methylcyclohexylamino)-2-((1r,4R)-4-methoxycyclohexylamino) pyrimidine-5-carbonitrile], the IC50 was < 200 nM. The same measure, in the same setting: the result for `CCO[C@H]1CC[C@H](Nc2ncc(C#N)c(N[C@@H]3CCCC[C@H](O)C3)n2)CC1` [Example C-29, 2-((1r,4R)-4-ethoxycyclohexylamino)-4-((1R,3S)-3-hydroxycycloheptylamino) pyrimidine-5-carbonitrile] reads < 200 nM. On the same count and under the same terms, the result for `CO[C@H]1CC[C@H](Nc2ncc(C#N)c(N[C@@H]3CCCC[C@@H](O)C3)n2)CC1` [Example C-42, 4-((1R,3R)-3-hydroxycycloheptylamino)-2-((1r,4R)-4-methoxycyclohexylamino) pyrimidine-5-carbonitrile] reads < 200 nM; that for `CO[C@H]1CC[C@H](Nc2ncc(C#N)c(N[C@@H]3CCCC[C@H](O)C3)n2)CC1` [Example C-27, 4-((1R,3S)-3-hydroxycycloheptylamino)-2-((1r,4R)-4-methoxycyclohexylamino) pyrimidine-5-carbonitrile], < 200 nM.

Still in this assay, the particulars now being: one or more of the JNK1 biochemical assays; read-out: Act. Level (JNK1 IC50 activity level).
Regarding `CN(C)C(=O)[C@H]1CC[C@H](Nc2ncc(C(N)=O)c(NC3(C)CCC3)n2)CC1` [Example 414, 2-((1r,4r)-4-(dimethylcarbamoyl)cyclohexylamino)-4-(1-methylcyclobutylamino)pyrimidine-5-carboxamide], the IC50 was < 200 nM.

As to `NC(=O)c1cnc(N[C@H]2CC[C@H](O)CC2)nc1NC1C2CC1C2` (stereo partly drawn) [Example 453, 4-(bicyclo[1.1.1]pentan-2-ylamino)-2-((1r,4r)-4-hydroxycyclohexylamino)pyrimidine-5-carboxamide], the IC50 is < 200 nM. As for `CC1(Nc2nc(N[C@H]3CC[C@H](O)CC3)ncc2C(N)=O)CCCCC1` [Example 357, 2-((1r,4r)-4-hydroxycyclohexylamino)-4-(1-methylcyclohexylamino)pyrimidine-5-carboxamide], the IC50 is < 200 nM. As for `CC(C)(C)Nc1nc(NC2CCC(F)(F)CC2)ncc1C(N)=O` [Example 318, 4-(tert-butylamino)-2-(4,4-difluorocyclohexylamino)pyrimidine-5-carboxamide], the IC50 is < 200 nM. Turning to `CCC1(Nc2nc(N[C@H]3CC[C@H](OC)CC3)ncc2C(N)=O)CCC1` [Example 361, 4-(1-ethylcyclobutylamino)-2-((1r,4r)-4-methoxycyclohexylamino)pyrimidine-5-carboxamide], the IC50 was < 200 nM.

On to `NC(=O)c1cnc(N[C@]23CC[C@@](O)(CC2)C3)nc1NC12CC(C1)C2` [Example 458, 4-(bicyclo[1.1.1]pentan-1-ylamino)-2-((1r,4r)-4-hydroxybicyclo[2.2.1]heptan-1-ylamino)pyrimidine-5-carboxamide], for which the IC50 was < 200 nM. As for `CC(C)C(C)(C)Nc1ncc(C(N)=O)c(N[C@@H]2CC[C@@H](C)[C@H](O)C2)n1` [Example 366, 2-(2,3-dimethylbutan-2-ylamino)-4-((1R,3R,4R)-3-hydroxy-4-methylcyclohexylamino)pyrimidine-5-carboxamide], the IC50 is < 200 nM. Consider `C[C@H](Nc1ncc(C(N)=O)c(N[C@@H]2CC[C@@H](C)[C@H](O)C2)n1)C1CCC1` [Example 460, 2-((S)-1-cyclobutylethylamino)-4-((1R,3R,4R)-3-hydroxy-4-methylcyclohexylamino)pyrimidine-5-carboxamide], for which the IC50 is < 200 nM. On to `CC(C)(C)Nc1nc(NC23CCC(O)(CC2)CC3)ncc1C(N)=O` [Example 237, 4-(tert-butylamino)-2-(4-hydroxybicyclo[2.2.2]octan-1-ylamino)pyrimidine-5-carboxamide], for which the IC50 is < 200 nM.

On to `CCO[C@H]1CC[C@H](Nc2ncc(C(N)=O)c(NC3(C)CCCC3)n2)CC1` [Example 488, 2-((1r,4r)-4-ethoxycyclohexylamino)-4-(1-methylcyclopentylamino)pyrimidine-5-carboxamide], for which the IC50 is < 200 nM. On the same count and under the same terms, the result for `C[C@]1(O)CCC[C@@H](Nc2nc(NC3CCC3)ncc2C(N)=O)C1` [Example 340, 2-(cyclobutylamino)-4-((1R,3S)-3-hydroxy-3-methylcyclohexylamino)pyrimidine-5-carboxamide] reads < 200 nM.

The assay is the same for the next values; noted with them: tested in one or more of the JNK1 biochemical assays; read-out: Act. Level (JNK1 biochemical assay IC50 activity level).
For the molecule `CCO[C@H]1C[C@H](Nc2ncc(C(N)=O)c(N[C@H]3CCC[C@@H]3O)n2)C1` [Example A-74, 2-((1r,3S)-3-ethoxycyclobutylamino)-4-((1S,2S)-2-hydroxycyclopentylamino)pyrimidine-5-carboxamide], the IC50 was 200 to 800 nM.

On to `CCO[C@H]1CC[C@H](Nc2ncc(C(N)=O)c(NC[C@@H](C)O)n2)CC1` [Example A-67, 2-((1r,4R)-4-ethoxycyclohexylamino)-4-((R)-2-hydroxypropylamino)pyrimidine-5-carboxamide], for which the IC50 was < 200 nM. As to `CN(C)C(=O)[C@H]1CC[C@H](Nc2ncc(C(N)=O)c(N[C@@H]3CCCOC3)n2)CC1` [Example A-194, 2-((1r,4R)-4-(dimethylcarbamoyl)cyclohexylamino)-4-((R)-tetrahydro-2H-pyran-3-ylamino)pyrimidine-5-carboxamide], the IC50 was < 200 nM.

Regarding `COC[C@H]1CC[C@H](Nc2ncc(C(N)=O)c(NC3CCN(C(C)=O)CC3)n2)CC1` [Example A-82, 4-(1-acetylpiperidin-4-ylamino)-2-((1r,4r)-4-(methoxymethyl)cyclohexylamino)pyrimidine-5-carboxamide], the IC50 was in the range of 200 to 800 nM.

As to `CO[C@H]1CC[C@H](Nc2ncc(C(N)=O)c(NC3CCC4(CC3)OCCO4)n2)CC1` [Example A-121, 4-(1,4-dioxaspiro[4.5]decan-8-ylamino)-2-((1r,4r)-4-methoxycyclohexylamino)pyrimidine-5-carboxamide], the IC50 was < 200 nM. `CCO[C@H]1CC[C@H](Nc2ncc(C(N)=O)c(N[C@@H]3CCCC[C@H](O)C3)n2)CC1` [Example A-158, 2-((1r,4R)-4-ethoxycyclohexylamino)-4-((1R,3S)-3-hydroxycycloheptylamino)pyrimidine-5-carboxamide]: the IC50 is < 200 nM. For `CCO[C@H]1CC[C@H](Nc2ncc(C(N)=O)c(N[C@H]3CCCOC3)n2)CC1` [Example A-60, 2-((1r,4S)-4-ethoxycyclohexylamino)-4-((S)-tetrahydro-2H-pyran-3-ylamino)pyrimidine-5-carboxamide], the IC50 is < 200 nM. Same read-out and setting: with `CO[C@H]1CC[C@@H](Nc2nc(N[C@H]3CC[C@H](O)CC3)ncc2C(N)=O)CC1` [Example A-100, 2-((1r,4r)-4-hydroxycyclohexylamino)-4-((1s,4s)-4-methoxycyclohexylamino)pyrimidine-5-carboxamide] the figure was < 200 nM; with `NC(=O)c1cnc(NC2CCCCC2)nc1N[C@H]1CC[C@@H](C(N)=O)CC1` [Example A-146, 4-((1s,4s)-4-carbamoylcyclohexylamino)-2-(cyclohexylamino)pyrimidine-5-carboxamide], < 200 nM; with `CCO[C@H]1CC[C@@H](Nc2nc(NC(C)(C)CO)ncc2C(N)=O)CC1` [Example A-106, 4-((1s,4s)-4-ethoxycyclohexylamino)-2-(1-hydroxy-2-methylpropan-2-ylamino)pyrimidine-5-carboxamide], 200 to 800 nM.

The values are drawn from patent US12129237B2, “Substituted diaminocarboxamide and diaminocarbonitrile pyrimidines, compositions thereof, and methods of treatment therewith” (SIGNAL PHARMACEUTICALS, LLC, priority 2011, dated 2024).
